Experimental data taken from US10316017B2, “COT modulators and methods of use thereof” (Gilead Sciences, Inc., priority 2015, dated 2019).

Key:
[1] = test system: TNFα production in LPS-stimulated human monocytes; test: Cot Monocyte TNFα Cell Based Assay; conditions: Homo sapiens, Monocyte, TNFα in LPS-stimulated human monocytes; read-out: EC50 TNF
Procedure: Example 60: Cot Monocyte TNFα Cell Based Assay
The cell suspension was then plated at a density of 5,000 cells/well onto black 384 well Greiner clear bottom plates. Plates were pre-spotted with test compounds and serially diluted in DMSO where 200 nL/well were delivered using the Echo 550 acoustic liquid dispenser (Labcyte®) for a final DMSO concentration of 0.5%. Plated cells were treated with compound for 1 hour at 37° C. Cells were then stimulated with 50 pg/ml of LPS (Sigma) excluding outside columns of plate used for unstimulated cell control wells. Cells were incubated for an additional 4 hours at 37° C. Cells were then spun out of the media and 5 ul of sample were taken and analyzed for total TNFα content using the TR-FRET Human TNFα detection system (CisBio). This system utilizes two labeled antibodies (cryptate and XL665) that bind to two different epitopes of the TNFα molecule and produce FRET signal proportional to the concentration of TNFα in the sample. Detection antibodies are mixed 50:50 and 5 μL were dispensed into each well. Plates were covered with clear seals and incubated at room temp overnight. […] Percent of control was calculated as follows: % Control=100×(RatioSample−Ratio0% stimulation)/(Ratio100% Stimulation−Ratio0% Stimulation) where unstimulated cells (0% stimulation) were the negative control and stimulated cells (100% stimulation) were used as the positive control.

[2] = molecular target: T1, human Cot catalytic domain (30-397 amino acids) (Homo sapiens, UniProt P41279); test: High Throughput Cot Biochemical Assay (KinEASE TR-FRET); conditions: Cot KinEASE TR-FRET (HTRF) biochemical assay, 400 μM ATP; read-out: IC50 HTRF
T1 construct: Purified recombinant human Cot catalytic domain (30-397 amino acids) was purchased from Cama Biosciences; purchased Cama Biosciences (so in the source)
T1 sequence (P41279 30-397): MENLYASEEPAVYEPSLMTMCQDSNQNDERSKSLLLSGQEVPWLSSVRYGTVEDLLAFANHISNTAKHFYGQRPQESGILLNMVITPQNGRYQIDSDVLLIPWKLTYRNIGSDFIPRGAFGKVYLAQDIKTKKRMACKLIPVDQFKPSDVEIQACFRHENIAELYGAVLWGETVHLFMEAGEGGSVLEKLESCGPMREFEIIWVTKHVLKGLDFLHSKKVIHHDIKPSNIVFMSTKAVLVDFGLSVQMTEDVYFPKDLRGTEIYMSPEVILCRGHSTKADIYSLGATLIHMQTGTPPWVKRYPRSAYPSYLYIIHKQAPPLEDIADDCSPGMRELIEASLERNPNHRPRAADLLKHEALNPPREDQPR
Method in brief: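 First, purified human Cot (aa 30-397) at 5 nM phosphorylates an XL665-labeled STK3 peptide (1 μM) at 400 μM ATP, pH 7.0, 0.1% DMSO. Then a europium-conjugated phospho-specific antibody binds the product, giving the TR-FRET signal.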

EC50 [1] [nM] | IC50 [2] [nM] | Compound
993 | 147 | [2H]C(Nc1cc(Cl)c2ncc(C#N)c(NC3CCCC4CC43)c2c1)(c1ccc(F)cc1)c1cn(C2CC2)nn1 (stereo in doubt) [Example 250, 4-(bicyclo[4.1.0]heptan-2-ylamino)-8-chloro-6-(((S)-(1-cyclopropyl-1H-1,2,3-triazol-4-yl)(4-fluorophenyl)methyl-d)amino)quinoline-3-carbonitrile]
1280 | 105 | [2H]C(Nc1cc(Cl)c2ncc(C#N)c(NC3CCC4CC43)c2c1)(c1ccc(F)cc1)c1cn(C2CC2)nn1 (stereo in doubt) [Example 251, 4-(bicyclo[3.1.0]hexan-2-ylamino)-8-chloro-6-(((S)-(1-cyclopropyl-1H-1,2,3-triazol-4-yl)(4-fluorophenyl)methyl-d)amino)quinoline-3-carbonitrile]
> 10000 | 222 | [2H]C(Nc1cc(Cl)c2ncc(C#N)c(NC3CC4CCCC(C4)C3)c2c1)(c1ccc(F)cc1)c1cn(C2CC2)nn1 (stereo in doubt) [Example 278, 4-(((1R,5S)-bicyclo[3.3.1]nonan-3-yl)amino)-8-chloro-6-(((S)-(1-cyclopropyl-1H-1,2,3-triazol-4-yl)(4-fluorophenyl)methyl-d)amino)quinoline-3-carbonitrile]
127 | 7 | [2H]C(Nc1cc(F)c2ncc(C#N)c(NC(CC#N)c3ccccc3)c2c1)(c1ccc(F)cc1)c1cn(C2CC2)nn1 (stereo in doubt) [Example 286, 4-((2-cyano-1-phenylethyl)amino)-6-(((1-cyclopropyl-1H-1,2,3-triazol-4-yl)(4-fluorophenyl)methyl-d)amino)-8-fluoroquinoline-3-carbonitrile]
4480 | 372 | [2H]C(Nc1cc(Cl)c2ncc(C#N)c(N[C@H]3CCCCC3(C)C)c2c1)(c1ccc(F)cc1)c1cn(C2CC2)nn1 (stereo in doubt) [Example 319, 8-chloro-6-(((S)-(1-cyclopropyl-1H-1,2,3-triazol-4-yl)(4-fluorophenyl)methyl-d)amino)-4-(((S)-2,2-dimethylcyclohexyl)amino) quinoline-3-carbonitrile]
6430 | 1150 | [2H]C(Nc1cc(Cl)c2ncc(C#N)c(NC3C(C)CCCC3C)c2c1)(c1ccc(F)cc1)c1cn(C2CC2)nn1 (stereo in doubt) [Example 320, 8-chloro-6-(((S)(1-cyclopropyl-1H-1,2,3-triazol-4-yl)(4-fluorophenyl)methyl-d)amino)-4-((2,6-dimethylcyclohexyl)amino) quinoline-3-carbonitrile]
> 10000 | 1400 | CC(C)(C)N1CCC(n2cc([C@@H](Nc3cc(Cl)c4ncc(C#N)c(NC(=O)c5ccccc5)c4c3)c3ccc(F)cc3)nn2)CC1 [Compound 16, (S)-N-(6-(((1-(1-(tert-butyl)piperidin-4-yl)-1H-1,2,3-triazol-4-yl)(4-fluorophenyl)methyl)amino)-8-chloro-3-cyanoquinolin-4-yl)benzamide]
260 | 4 | CC(C)(C)N1CCC(n2cc([C@@H](Nc3cc(Cl)c4ncc(C#N)c(Nc5ccc(F)c(Cl)c5)c4c3)c3cccc(CO)c3)nn2)CC1 [Compound 17, (S)-6-(((1-(1-(tert-butyl)piperidin-4-yl)-1H-1,2,3-triazol-4-yl)(3-(hydroxymethyl)phenyl)methyl)amino)-8-chloro-4-((3-chloro-4-fluorophenyl)amino) quinoline-3-carbonitrile]
1220 | 7 | CN(C)Cc1cccc([C@H](Nc2cc(Cl)c3ncc(C#N)c(Nc4ccc(F)c(Cl)c4)c3c2)c2cn(C3CCN(C(C)(C)C)CC3)nn2)c1 [Compound 18]
18000 | 5 | CC(C)(C)N1CCC(n2cc([C@@H](Nc3cc(Cl)c4ncc(C#N)c(Nc5ccc(F)c(Cl)c5)c4c3)c3cccc(C(=O)O)c3)nn2)CC1 [Compound 19]
41 | 1 | CN(C)C(=O)c1cccc([C@H](Nc2cc(Cl)c3ncc(C#N)c(Nc4ccc(F)c(Cl)c4)c3c2)c2cn(C3CCN(C(C)(C)C)CC3)nn2)c1 [Compound 20]
234 | 5 | CC(=O)c1cccc([C@H](Nc2cc(Cl)c3ncc(C#N)c(Nc4ccc(F)c(Cl)c4)c3c2)c2cn(C3CCN(C(C)(C)C)CC3)nn2)c1 [Compound 21]
158 | 2 | CC(O)c1cccc([C@H](Nc2cc(Cl)c3ncc(C#N)c(Nc4ccc(F)c(Cl)c4)c3c2)c2cn(C3CCN(C(C)(C)C)CC3)nn2)c1 (stereo partly drawn) [Compound 22]
95 | 2 | CC(C)(C)N1CCC(n2cc([C@@H](Nc3cc(Cl)c4ncc(C#N)c(Nc5ccc(F)c(Cl)c5)c4c3)c3cccc(-c4ncco4)c3)nn2)CC1 [Compound 23]
120 | 6 | CC(C)(C)N1CCC(n2cc([C@@H](Nc3cc(Cl)c4ncc(C#N)c(Nc5ccc(F)c(Cl)c5)c4c3)c3cccc(N)c3)nn2)CC1 [Compound 24]
975 | 4 | CC(C)(C)N1CCC(n2cc([C@@H](Nc3cc(Cl)c4ncc(C#N)c(Nc5ccc(F)c(Cl)c5)c4c3)c3cccc(NS(C)(=O)=O)c3)nn2)CC1 [Compound 25]
380 | 13 | [2H]C(Nc1cc(Cl)c2ncc(C#N)c(NCC(C)(C)C)c2c1)(c1cn(C(F)(F)CO)nn1)c1ccccc1Cl (stereo not drawn) [Compound 26]
232 | 11 | CCN1CCC(n2cnc(C(Nc3cc(Cl)c4ncc(C#N)c(Nc5ccc(F)c(Cl)c5)c4c3)c3ccccc3)c2)CC1 (stereo not drawn) [Compound 27, 8-chloro-4-((3-chloro-4-fluorophenyl)amino)-6-(((1-(1-ethylpiperidin-4-yl)-1H-imidazol-4-yl)(phenyl)methyl)amino) quinoline-3-carbonitrile]
> 1000 | 2000 | [2H][C@](Nc1cc(-c2ccccn2)c2ncc(C#N)c(NCC(C)(C)C)c2c1)(c1ccc(F)cc1)c1cn(C2CC2)nn1 [Compound 28]

Further lines, the compound ahead of its results:

Compound | EC50 [1] [nM] | IC50 [2] [nM]
[2H][C@](Nc1cc(Cl)c2ncc(C#N)c(NCC(C)(C)C)c2c1)(c1ccc(F)cc1)c1cn(C2CC2)nn1 [Compound 1] | 143 | 6
[2H][C@](Nc1cc(Cl)c2ncc(C#N)c(N[C@H](CC)c3ccccc3)c2c1)(c1ccc(F)cc1)c1cn(C2CC2)nn1 [Compound 2] | 151 | 6
Cc1ccccc1[C@H](Nc1cc(Cl)c2ncc(C#N)c(NCC(C)(C)C)c2c1)c1cn(C2CC2)nn1 [Compound 3] | 246 | 7
[2H]C(Nc1cc(Cl)c2ncc(C#N)c(NCC(C)(C)C)c2c1)(c1cn(CC(N)=O)nn1)c1ccccc1Cl (stereo not drawn) [Compound 4] | 280 | 6
CCN1CCC(n2cc([C@@H](Nc3cc(Cl)c4ncc(C#N)c(Nc5ccc(F)c(Cl)c5)c4c3)c3ccc(F)cc3)nn2)CC1 [Compound 5] | 153 | 2
N#Cc1cnc2c(Cl)cc(NC(c3ccc(F)cc3)c3ccon3)cc2c1Nc1ccc(F)c(Cl)c1 (stereo not drawn) [Compound 7] | 1520 | 187
Cn1cc(C(Nc2cc(Br)c3ncc(C#N)c(Nc4ccc(F)c(Cl)c4)c3c2)c2ccc(F)cc2)nn1 (stereo not drawn) [Compound 8, 8-bromo-4-((3-chloro-4-fluorophenyl)amino)-6-(((4-fluorophenyl) (1-methyl-1H-1,2,3-triazol-4-yl)methyl)amino) quinoline-3-carbonitrile] | 571 | 33
CC(=O)N(C)c1cccc([C@H](Nc2cc(C#N)c3ncc(C#N)c(NCC(C)(C)C)c3c2)c2cn(C3CC3)nn2)c1 [Compound 9] | 172 | 2
CC(C)(C)N1CCC(n2cc([C@@H](Nc3cc(Cl)c4ncc(C#N)c(Nc5cnc(F)c(Cl)c5)c4c3)c3ccccc3)nn2)CC1 [Compound 10] | 71 | 4
[2H][C@](Nc1cc(C(C)=O)c2ncc(C#N)c(NCC(C)(C)C)c2c1)(c1ccc(F)cc1)c1cn(C2CC2)nn1 [Compound 11] | 98 | 5
[2H][C@](Nc1cc(-c2cncnc2)c2ncc(C#N)c(NCC(C)(C)C)c2c1)(c1ccc(F)cc1)c1cn(C2CC2)nn1 [Compound 12] | 205 | 20
[2H][C@](Nc1cc(Br)c2ncc(C#N)c(NCC(C)(C)C)c2c1)(c1ccc(F)cc1)c1nnn(C2CC2)c1SC [Compound 13, (S)-8-bromo-6-(((1-cyclopropyl-5-(methylthio)-1H-1,2,3-triazol-4-yl)(4-fluorophenyl)methyl-d)amino)-4-(neopentylamino) quinoline-3-carbonitrile] | 221 | 71
[2H][C@@](Nc1cc(C(C)=O)c2ncc(C#N)c(NCC(C)(C)C)c2c1)(c1cn(C2CC2)nn1)c1ccccc1Cl [Compound 14] | 298 | 13
[2H][C@](Nc1cc(Cl)c2ncc(C#N)c(N[C@H](CC)c3ccccc3)c2c1)(c1cccc(C#N)c1)c1c[nH]nn1 [Compound 15] | 134 | 4
